# Test results reported in PMC6736568, “Discovery of Novel Anti-cryptosporidial Activities From Natural Products by in vitro High-Throughput Phenotypic Screening” (Frontiers in Microbiology, 2019).
# Where two headings read alike, the source gives them in different places.
# What was measured:
# Cryptosporidium parvum = experiment: qRT-PCR assay of the growth of C. parvum in vitro in HCT-8 host cells (primary and secondary screening, EC50); format: cell-based
# [1] = primary screening at 10 uM, from Hs18S ΔCT
# [2] = primary screening at 10 uM, treated vs control
Structure (SMILES),Cytotoxicity (%) (HCT-8 host cells (Hs18S); [1]),Hs18S ΔCT (HCT-8 host cells (Hs18S); [2]),Inhibition (%) (Cryptosporidium parvum; primary screening at 10 uM),further results
O=C1CCC[C@@H]2[C@H]3C[C@@H](CN12)[C@@H]1CCCCN1C3.[O-][Cl+3]([O-])([O-])O [LUPANINE PERCHLORATE],-6.1,-0.09,10.49,–
C=C(C)[C@@H]1CC[C@]2(C)CC[C@]3(C)[C@H](CC[C@@H]4[C@@]5(C)CC[C@H](OC(C)=O)C(C)(C)[C@@H]5CC[C@]43C)[C@@H]12 [LUPEOL ACETATE],-12.1,-0.17,25.85,–
COc1cc2oc3cc(OC)c(OC)c(CC=C(C)C)c3c(=O)c2c(OC)c1CC=C(C)C [MANGOSTIN TRIMETHYL ETHER],–,–,-8.08,Hs18S ΔCT (HCT-8 host cells (Hs18S)): 0.00; Cytotoxicity (%) (HCT-8 host cells (Hs18S); 10 µM): -0.1
OC[C@H]1O[C@H](OCC2O[C@@H](O)[C@H](O)[C@@H](O)[C@@H]2O)[C@H](O)[C@@H](O)[C@H]1O (some centres unmarked) [MELIBIOSE],-4.0,-0.06,-16.19,–
COC(=O)/C(C)=C\C[C@@]12OC(C)(C)[C@@H]3C[C@@H](C=C4C(=O)c5c(OC)c6c(c(CC=C(C)C)c5O[C@]431)O[C@](C)(CCC=C(C)C)C=C6)C2=O [METHYL GAMBOGATE METHYL ETHER],22.4,0.37,23.61,–
COC(=O)/C=C/c1cc(OC)c(OC)c(OC)c1 [METHYL TRIMETHOXYCINNAMATE],2.8,0.04,-24.35,–
C[C@@]1(O)CCOC(=O)C1 [MEVALONIC ACID LACTONE],16.5,0.26,26.69,–
COC(=O)C1=CO[C@@H](C)[C@H]2CN3CC[C@]4(C(=O)Nc5ccccc54)[C@@H]3C[C@H]12 [MITRAPHYLLINE],11.1,0.17,41.31,–
CCC(C)C(NC)C(=O)O (centres unmarked) [N-METHYLISOLEUCINE],–,–,-3.51,Hs18S ΔCT (HCT-8 host cells (Hs18S)): -0.07; Cytotoxicity (%) (HCT-8 host cells (Hs18S); 10 µM): -5.2
CN1CCC[C@H]1c1cccnc1.O=C(O)C(O)C(O)C(=O)O.O=C(O)C(O)C(O)C(=O)O [NICOTINE BITARTRATE],-43.3,-0.52,36.71,–
C[C@@H]1[C@H](O)[C@@H](C)/C=C/C=C/CC/C=C/C=C/C=C/C=C/C(O[C@H]2O[C@H](C)[C@@H](O)[C@H](N)[C@@H]2O)CC2O[C@](O)(CC(O)C(O)CCC(O)CC(O)CC(O)CC(=O)O[C@H]1C)CC(O)C2C(=O)O (some centres unmarked) [NYSTATIN],51.7,1.05,34.97,–
COc1ccc(-c2coc3c4c(c(CC=C(C)C)c(O)c3c2=O)OC(C)(C)C=C4)cc1 [OSAJIN 4'-METHYL ETHER],-2.7,-0.04,-21.87,–
COC[C@]12CN(C=O)[C@@H]3[C@@H]4[C@H](OC)[C@H]1[C@@]3([C@@H](OC)C[C@H]2O)[C@@H]1C[C@@]2(O)[C@H](OC(=O)c3ccccc3)[C@@H]1[C@]4(OC(C)=O)[C@@H](O)[C@@H]2OC [OXONITINE],3.3,0.05,0.75,–
COc1cc2c(cc1-c1cc3cc4ccoc4cc3oc1=O)OCO2 [PACHYRRHIZIN],-6.0,-0.08,29.77,–
CN(C)CC(=O)OC[C@@H](O)[C@@H](O)[C@H](O)[C@@H](O)C(=O)[O-].[Na+] [PANGAMIC ACID SODIUM],–,–,-4.04,Cytotoxicity (%) (HCT-8 host cells (Hs18S); 10 µM): -61.0%
CC(=O)OCC(OC(C)=O)C(OC(C)=O)C(OC(C)=O)C(OC(C)=O)C(COC(C)=O)OC(C)=O (centres unmarked) [PERSEITOL HEPTAACETATE],-10.1,-0.14,0.17,–
Cl.NCCc1ccccc1 [PHENETHYLAMINE HYDROCHLORIDE],87.4,2.99,39.04,–
CC(=O)c1c(O)cc(O)cc1O [PHLORACETOPHENONE],26.5,0.44,-25.30,–
COc1ccc(/C=C/c2cc(O)cc(O[C@@H]3O[C@H](CO)[C@@H](O)[C@H](O)[C@H]3O)c2)cc1 [PICEID METHYL ETHER],30.3,0.52,15.82,–

Structure (SMILES),Cytotoxicity (%) (HCT-8 host cells (Hs18S); [1]),Hs18S ΔCT (HCT-8 host cells (Hs18S); [2]),Inhibition (%) (Cryptosporidium parvum; primary screening at 10 uM),further results
COc1cc([C@@H]2c3cc4c(cc3[C@H](OC(C)=O)[C@H]3COC(=O)[C@@H]23)OCO4)cc(OC)c1OC [PICROPODOPHYLLIN ACETATE],50.6,1.02,20.82,–
COc1cc([C@@H]2c3cc4c(cc3[C@H](OC(C)=O)[C@H]3COC(=O)[C@H]23)OCO4)cc(OC)c1OC [PODOPHYLLIN ACETATE],33.2,0.58,72.02,% Inhibition (3.3 uM) (Cryptosporidium parvum; secondary screening at 3.3 uM): 64%
CC(C)c1c(O)c(-c2cc3c(c(C(C)C)c2O)CCC2C(C)(C)CCC[C@]32C)cc2c1CCC1C(C)(C)CCC[C@]21C (some centres unmarked) [PODOTOTARIN],2.5,0.04,-4.91,–
COc1ccc(-c2coc3c4c(c(CC=C(C)C)c(O)c3c2=O)OC(C)(C)C=C4)cc1OC [POMIFERIN DIMETHYL ETHER],6.1,0.09,-58.61,–
O=c1cc(-c2ccccc2)oc2cccc(O)c12 [PRIMULETIN],3.1,0.05,-14.55,–
O=C(O)[C@@H]1CCCN1 [PROLINE (L)],–,–,–,Hs18S ΔCT (HCT-8 host cells (Hs18S)): 0.03; Cytotoxicity (%) (HCT-8 host cells (Hs18S); 10 µM): 1.9; Inhibition (%) (Cryptosporidium parvum; 10 µM): -22.72
C[C@@H]1C[C@H](O)[C@@]2(O)[C@]13CC(=O)OC[C@@]2(C)[C@@](C)(O)C(=O)C3 [PSEUDO-ANISATIN],9.2,0.14,-5.73,–
O=C(O)c1cc(O)c(=O)c2c(O)c(O)c(O)cc2c1 [PURPUROGALLIN-4-CARBOXYLIC ACID],7.3,0.11,2.20,–
C=C(C)CCCC(C)CCOC(C)=O (centres unmarked) [RHODINYL ACETATE],10.9,0.17,-15.58,–
Cc1cc2nc3c(=O)[nH]c(=O)nc-3n(C[C@H](O)[C@H](O)[C@H](O)COP(=O)([O-])O)c2cc1C.[Na+] [RIBOFLAVIN 5-PHOSPHATE SODIUM],-25.0,-0.32,-3.47,–
NC[C@H]1O[C@H](O[C@H]2[C@H](O[C@@H]3O[C@H](CO)[C@@H](O)[C@H]3O)[C@@H](O)[C@H](N)C[C@@H]2N)[C@H](N)[C@@H](O)[C@@H]1O.O=S(=O)(O)O [RIBOSTAMYCIN SULFATE],-2.0,-0.03,-35.94,–
COc1ccc2c(c1O)-c1c(OC)c(OC)cc3c1[C@H](C2)N(C)CC3 [S-ISOCORYDINE (+)],-47.4,-0.56,-15.72,–
COc1cc2c(cc1O)CCNC2C (centres unmarked) [SALSOLINE],-0.9,-0.01,-1.38,–
CC1(C)CCC[C@]2(C)[C@H]3CC(=O)O[C@]3(C)CC[C@@H]12 [SCLAREOLIDE],32.7,0.57,26.58,–
O=C(O)C1=C[C@@H](O)[C@@H](O)[C@H](O)C1 [SHIKIMIC ACID],–,–,–,"Hs18S ΔCT (HCT-8 host cells (Hs18S); human, 41 h, 10 μM): 0.06; inhibition at 10 µM (Cryptosporidium parvum; Cryptosporidium parvum, HCT-8, primary screening at 10 uM, read-out: Inhibition (%)): 10.3%"
Cc1c[nH]c2ccccc12 [SKATOLE],18.5,0.30,25.24,–
C[C@@H]1CC[C@@]2(OC1)O[C@H]1C[C@H]3[C@@H]4CC[C@@H]5C[C@@H](O)CC[C@]5(C)[C@H]4CC[C@]3(C)[C@H]1[C@@H]2C [SMILAGENIN],33.2,0.58,13.52,–
CC(C)=CCC/C(C)=C/CC/C(C)=C/CC/C(C)=C/CC/C(C)=C/CC/C(C)=C/CC/C(C)=C/CC/C(C)=C/CC/C(C)=C/CO [SOLANESOL],10.5,0.16,-25.87,–
CC(=O)OC/C=C(\C)CC/C=C(\C)CC/C=C(\C)CC/C=C(\C)CC/C=C(\C)CC/C=C(\C)CC/C=C(\C)CC/C=C(\C)CCC=C(C)C [SOLANESYL ACETATE],–,–,15.24,Hs18S ΔCT (HCT-8 host cells (Hs18S)): -0.20; Cytotoxicity (%) (HCT-8 host cells (Hs18S); 10 µM): -14.8
